Experimental data reported in patent US20040147567A1, “Arginine derivatives” (priority 2001, published 2004).

Target: T1, human MC4 receptor (Homo sapiens, UniProt P32245)
T1 construct: purchased Biolinks Co; host or cells: HEK-293 cell membranes
Test: MC4 receptor binding assay ([125I]Nle4-D-Phe7-α-MSH displacement)
Conditions: HEK-293 cell membranes expressing the human MC4 receptor; [125I]Nle4-D-Phe7-α-MSH 0.2 nM; 25° C., 120 minutes
Protocol: Experiment 1 [MC4 Receptor Binding Assay]
MC4 receptor binding assay was carried out according to the method described in Pharmacology & Toxicology, 79, 161-165, 1996. HEK-293 cell membranes expressing the human MC4 receptor were purchased from Biolinks Co. The cell membranes were homogenized in a 50 mM Tris hydrochloric acid buffer solution (pH 7.4) containing 2 mM ethylenediamine tetraacetic acid, 10 mM calcium chloride and 100 μM phenylmethanesulfonylfluoride. The homogenate was centrifuged at 48,000×g for 20 minutes at 4° C. The precipitate obtained by centrifugation was again homogenized in the same buffer solution, and the homogenate was centrifuged at 48,000×g for 20 minutes at 4° C. This procedure was repeated twice. The precipitate was suspended in 50 mM Tris hydrochloric acid buffer solution (pH 7.4) containing 2 mM ethylenediamine tetraacetic acid, 10 mM calcium chloride, 100 μM phenylmethanesulfonylfluoride and 0.1% bovine serum albumin to adjust to a protein concentration of 100 μg/ml to give a crude membrane preparation which was used for the binding assay. The crude membrane preparation (0.25 ml, 25 μg protein) was reacted with [^125I]Nle^4-D-Phe^7-α-MSH (final concentration; 0.2 nM) at 25° C. for 120 minutes. […] The radioactivity on the filter paper was measured in a gamma-counter. […] The IC50 value was calculated from the inhibition curve in the concentration of 10^−9-10^−5.

T1 sequence (P32245 whole entry): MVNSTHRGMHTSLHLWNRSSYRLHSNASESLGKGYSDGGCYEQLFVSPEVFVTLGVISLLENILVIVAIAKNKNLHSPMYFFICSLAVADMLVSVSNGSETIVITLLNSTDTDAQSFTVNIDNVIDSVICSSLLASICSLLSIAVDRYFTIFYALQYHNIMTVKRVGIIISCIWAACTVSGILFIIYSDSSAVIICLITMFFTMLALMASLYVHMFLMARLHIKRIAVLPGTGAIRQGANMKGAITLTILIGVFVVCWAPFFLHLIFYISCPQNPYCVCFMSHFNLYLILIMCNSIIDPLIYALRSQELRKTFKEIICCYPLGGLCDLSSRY

- IC50: 0.69 µM
Compound: CC(=O)N[C@H](Cc1cccc2ccccc12)C(=O)N[C@@H](CCCNC(=N)N)C(=O)N[C@H](Cc1ccc2ccccc2c1)C(N)=O [Compound 224]
